Data from ChEMBL document CHEMBL5244273, “Tuberculosis: An Overview of the Immunogenic Response, Disease Progression, and Medicinal Chemistry Efforts in the Last Decade toward the Development of Potential Drugs for Extensively Drug-Resistant Tuberculosis Strains” (J Med Chem, 2021).
In brackets after ≈: the same amount, converted by molar mass.

Tested on: Mycobacterium tuberculosis
Assay: Antimycobacterial activity against Mycobacterium tuberculosis H37Rv assessed as inhibition of bacterial growth by resazurin dye based fluorescence analysis
Type: functional

SMILES	MIC [µM]
O=S(=O)(NCCO)c1ccc(-c2nnn(CC3CCC(F)(F)CC3)n2)cc1	0.1 (≈ 0.0401 µg/mL)
CNS(=O)(=O)c1ccc(-c2nnn(Cc3ccncc3)n2)cc1OC	0.1 (≈ 0.036 µg/mL)
O=S(=O)(NCCO)c1ccc(-c2nnn(Cc3ccc(F)cn3)n2)c(F)c1F	0.1 (≈ 0.0414 µg/mL)
O=S(=O)(NCCO)c1ccc(-c2nnn(Cc3ccnnc3)n2)cc1	0.1 (≈ 0.0361 µg/mL)
C[C@@H](O)CNS(=O)(=O)c1ccc(-c2nnn(Cc3ccncc3)n2)cc1	0.1 (≈ 0.0374 µg/mL)
COC(=O)CNS(=O)(=O)c1ccc(-c2nnn(Cc3ccc(F)cc3)n2)cc1	0.1 (≈ 0.0405 µg/mL)
O=S(=O)(NCCO)c1ccc(-c2nnn(Cc3cccnn3)n2)cc1	0.1 (≈ 0.0361 µg/mL)
Cc1ccc(Cn2nnc(-c3ccc(S(=O)(=O)NC[C@@H](C)O)cc3)n2)nc1	0.1 (≈ 0.0388 µg/mL)
N#CCNS(=O)(=O)c1ccc(-c2nnn(CC3CCCCO3)n2)cc1 (stereo not drawn)	0.1 (≈ 0.0362 µg/mL)
NC(=O)CNS(=O)(=O)c1ccc(-c2nnn(Cc3ccc(F)cc3)n2)cc1Cl	0.1 (≈ 0.0425 µg/mL)
NC(=O)CNS(=O)(=O)c1ccc(-c2nnn(Cc3ccc(F)cc3)n2)cc1	0.1 (≈ 0.039 µg/mL)
CCOc1ccc(Cn2nnc(-c3ccc(S(=O)(=O)NCCO)cc3)n2)cc1	0.1 (≈ 0.0403 µg/mL)
O=S(=O)(NCCO)c1ccc(-c2nnn(Cc3ccc(C(F)(F)F)cc3)n2)cc1	0.1 (≈ 0.0427 µg/mL)
N#CCNS(=O)(=O)c1ccc(-c2nnn(Cc3cnccn3)n2)cc1	0.1 (≈ 0.0356 µg/mL)
O=S(=O)(NC(CO)CO)c1ccc(-c2nnn(Cc3ccncc3)n2)cc1	0.1 (≈ 0.039 µg/mL)
N#CCNS(=O)(=O)c1ccc(-c2cn(Cc3ccncc3)nn2)cc1	0.1 (≈ 0.0354 µg/mL)
CC(c1ccc(F)cc1)n1nnc(-c2ccc(S(=O)(=O)NCC(N)=O)cc2)n1 (stereo not drawn)	0.1 (≈ 0.0404 µg/mL)
O=S(=O)(NCCO)c1ccc(-c2cn(Cc3ccncc3)nn2)cc1	0.1 (≈ 0.0359 µg/mL)
COc1cc(-c2nnn(Cc3ccc(F)cc3)n2)ccc1S(=O)(=O)NCC(N)=O	0.1 (≈ 0.042 µg/mL)
O=S(=O)(NCCO)c1ccc(-c2nnn(Cc3ccc(F)cn3)n2)c(F)c1	0.1 (≈ 0.0396 µg/mL)
Cc1nccc(Cn2nnc(-c3ccc(S(=O)(=O)NCCO)cc3)n2)n1	0.1 (≈ 0.0375 µg/mL)
COc1cc(-c2nnn(CC3CCC(F)(F)CC3)n2)ccc1S(=O)(=O)NCC(N)=O	0.1 (≈ 0.0444 µg/mL)
NC(=O)CNS(=O)(=O)c1ccc(-c2nnn(Cc3ccc(F)c(F)c3)n2)cc1	0.1 (≈ 0.0408 µg/mL)
Cc1cc(S(=O)(=O)NCCO)ccc1-c1nnn(Cc2ccc(F)cn2)n1	0.1 (≈ 0.0392 µg/mL)
Cc1ccc(Cn2nnc(-c3ccc(S(=O)(=O)NCCO)cc3)n2)nc1	0.1 (≈ 0.0374 µg/mL)
O=S(=O)(NCCO)c1ccc(-c2nnn(CC3CCCOC3)n2)cc1 (stereo not drawn)	0.1 (≈ 0.0367 µg/mL)
COc1ccc(Cn2nnc(-c3ccc(S(=O)(=O)NCC(N)=O)cc3)n2)cc1	0.1 (≈ 0.0402 µg/mL)

SMILES	MIC [µM]
Cc1cc(Cn2nnc(-c3ccc(S(=O)(=O)NCCO)cc3)n2)ccn1	0.1 (≈ 0.0374 µg/mL)
Cc1cc(-c2nnn(CC3CCCCO3)n2)ccc1S(=O)(=O)NCCO (stereo not drawn)	0.1 (≈ 0.0381 µg/mL)
Cc1ccc(Cn2nnc(-c3ccc(S(=O)(=O)NCC(N)=O)cc3)n2)cc1	0.1 (≈ 0.0386 µg/mL)
COc1ccc(Cn2nnc(-c3ccc(S(=O)(=O)NCCO)cc3)n2)nc1	0.1 (≈ 0.039 µg/mL)
Cc1ccc(Cn2cc(-c3ccc(S(=O)(=O)NCCO)cc3)nn2)nc1	0.1 (≈ 0.0373 µg/mL)
COc1ccc(Cn2nnc(-c3ccc(S(=O)(=O)NCCO)c(OC)c3)n2)nc1	0.1 (≈ 0.042 µg/mL)
C[C@H](O)CNS(=O)(=O)c1ccc(-c2nnn(Cc3ccc(F)cc3)n2)cc1	0.1 (≈ 0.0391 µg/mL)
N#CNS(=O)(=O)c1ccc(-c2nnn(Cc3ccc(F)cn3)n2)cc1	0.1 (≈ 0.0359 µg/mL)
O=S(=O)(NCCO)c1ccc(-c2nnn(Cc3ncc(F)cc3F)n2)cc1	0.1 (≈ 0.0396 µg/mL)
O=S(=O)(NCCO)c1ccc(-c2nnn(CC3CCCCO3)n2)c(F)c1 (stereo not drawn)	0.1 (≈ 0.0385 µg/mL)
CNS(=O)(=O)c1ccc(-c2nnn(Cc3ccc(C#N)cc3)n2)cc1	0.1 (≈ 0.0354 µg/mL)
COc1cc(-c2nnn(Cc3ccncc3)n2)ccc1S(=O)(=O)NCC#N	0.1 (≈ 0.0385 µg/mL)
N#CCNS(=O)(=O)c1ccc(-c2nnn(Cc3ccc(F)cc3)n2)cc1	0.1 (≈ 0.0372 µg/mL)
COc1cc(-c2nnn(C(C)c3ccc(F)cc3)n2)ccc1S(=O)(=O)NCC(N)=O (stereo not drawn)	0.1 (≈ 0.0434 µg/mL)
Cc1cccc(Cn2nnc(-c3ccc(S(=O)(=O)NCCO)cc3)n2)n1	0.1 (≈ 0.0374 µg/mL)
N#Cc1ccc(Cn2cc(-c3ccc(S(=O)(=O)NCCO)cc3)nn2)cc1	0.1 (≈ 0.0383 µg/mL)
N#CCNS(=O)(=O)c1ccc(-c2nnn(CC3CCOCC3)n2)cc1	0.1 (≈ 0.0362 µg/mL)
O=S(=O)(NCCO)c1ccc(-c2nnn(Cc3ccc(F)cn3)n2)c(Cl)c1	0.1 (≈ 0.0413 µg/mL)
Cc1cnc(Cn2nnc(-c3ccc(S(=O)(=O)NCC#N)cc3)n2)cn1	0.1 (≈ 0.037 µg/mL)
NC(=O)CNS(=O)(=O)c1ccc(-c2nnn(CC3CCCCO3)n2)cc1 (stereo not drawn)	0.1 (≈ 0.038 µg/mL)
COc1ccc(Cn2nnc(-c3ccc(S(=O)(=O)NCCO)cc3)n2)cc1F	0.1 (≈ 0.0407 µg/mL)
O=S(=O)(NCCO)c1ccc(-c2nnn(Cc3ccc(Cl)cn3)n2)cc1	0.1 (≈ 0.0395 µg/mL)
C[C@@H](O)CNS(=O)(=O)c1ccc(-c2nnn(CC3CCC(F)(F)CC3)n2)cc1	0.1 (≈ 0.0415 µg/mL)
COc1cc(-c2nnn(Cc3ccc(F)cn3)n2)ccc1S(=O)(=O)NCCO	0.1 (≈ 0.0408 µg/mL)
O=S(=O)(NCCO)c1ccc(-c2nnn(CC3CCCCC3)n2)cc1F	0.1 (≈ 0.0383 µg/mL)
Cc1cc(-c2nnn(Cc3ccc(F)cn3)n2)ccc1S(=O)(=O)NCCO	0.1 (≈ 0.0392 µg/mL)
